Reference: patent US5565441A, “Phosphonoacetic esters and acids as anti-inflammatories” (The Upjohn Company, priority 1995, dated 1996)

tested on: DTH granuloma (DTH GRA) lesion in mBSA-sensitized mice; experiment: Delayed Type Hypersensitivity Granuloma Assay (DTH GRA) model for inflammation; format: in vivo, mouse; settings: 10 MPK, PO; mBSA-sensitized mice, mBSA-soaked filter excised after nine days
Text: The Formula I compounds of this invention have been tested in a Delayed Type Hypersensitivity Granuloma Assay (DTH GRA) model for inflammation. This assay is described by Dunn, C. J. et al., "Development of a delayed-type hypersensitivity granuloma model in the mouse for the study of chronic immune-mediated inflammatory disease," Agents and Actions, 27, 3/4 (1989) and "Murine Delayed-Type Hypersensitivity Granuloma," Int. J. Immunopharmc., 12, 8, 899-904 (1990).
Briefly, mBSA-sensitized mice have a DTH granuloma (DTH GRA) lesion induced by subcutaneously implanting a mBSA-soaked filter which is excised after nine days. Compounds are administered to the mice to determine their effect on the lesions. The results are recorded as percent inhibition. […] Inhibition of 10 to 20% is considered to indicate anti-granuloma activity. Greater than 30% inhibition is good activity.

Row | Compound | % Inhibition (DTH granuloma) [%]
1 | CCOC(=O)C1=NNC(C(=O)OC)(P(=O)(OC)OC)C1 (stereo not drawn) [Compound 8, 1H-Pyrazole-5-carboxylic-acid, 3-carboethoxy-5-(dimethoxyphosphinyl)-4,5-dihydro, methyl ester] | 59

same assay, conditions: Mus musculus, 216 h; 10 MPK, PO; mBSA-sensitized mice, mBSA-soaked filter excised after nine days; read-out: % Inhibition (DTH granuloma)

Row | Compound | inhibition in vivo at 10 mg/kg [%]
2 | COC(=O)C(CCC(=O)c1cccc(F)c1)P(=O)(OC)OC (stereo not drawn) [Compound 2, Benzenepentanoic acid, α-(dimethoxyphosphinyl)-3-fluoro-δ-oxo-,methyl ester] | 26
3 | CCOC(=O)C(CC(C(=O)c1ccccc1)c1ccccc1)P(=O)(OCC)OCC (stereo not drawn) [Compound 3, Benzenepentanoic acid, α-(diethoxyphosphinyl)-δ-oxo-γ-phenyl-, ethyl ester] | 21
4 | COC(=O)C(CCC(=O)c1cccnc1)P(=O)(OC)OC (stereo not drawn) [Compound 4, 3-Pyridinepentanoic acid, α-(dimethoxyphosphinyl)-δ-oxo-, methyl ester] | 37
5 | COC(=O)C(CCc1nc(-c2ccccc2)cc(=O)n1C)P(=O)(OC)OC (stereo not drawn) [Compound 6a, 2-Pyrimidinebutanoic acid, α-(dimethoxyphosphinyl)-1,6-dihydro-1-methyl-6-oxo-4-phenyl-, methyl ester] | 51
6 | COC(=O)C(CCc1nc(-c2ccccc2)cc(=O)n1C)P(=O)(O)O (stereo not drawn) [Compound 6b] | 37
7 | COC(=O)C(CCc1cc(C)nc2c(C#N)c(C)nn12)P(=O)(OC)OC (stereo not drawn) [Compound 7, Pyrazolo(1,5-a)pyrimidine-7-butanoic acid, 3-cyano-α-(dimethoxyphosphinyl)-2,5-dimethyl-, methyl ester] | 38
8 | COC(=O)C1(P(=O)(OC)OC)CC(C(=O)c2ccccc2)=NN1 (stereo not drawn) [Compound 9, 1H-Pyrazole-5-carboxylic acid, 3-benzoyl-5-(dimethoxyphosphinyl)-4,5-dihydro-, methyl ester] | 37
9 | COC(=O)C1(P(=O)(OC)OC)CC1C(=O)c1ccccc1 (stereo not drawn) [Compound 10, Cyclopropanecarboxylic acid, 2-benzoyl-1-(dimethoxyphosphinyl)-, methyl ester] | 47
10 | COP(=O)(OC)C(CCc1nc(-c2ccccc2)cc(=O)n1C)C(=O)OC(C)(C)C (stereo not drawn) [Compound 15, 2-Pyrimidine butanoic acid, α-(dimethoxyphosphinyl)-1,6-dihydro-1-methyl-6-oxo-4-phenyl, dimethylethyl ester] | 21

same assay, conditions: Mus musculus, 216 h; at 50 MPK, PO; mBSA-sensitized mice, mBSA-soaked filter excised after nine days

Row | Compound | inhibition in vivo at 50 mg/kg [%]
11 | CCOC(=O)C(CCC(=O)c1ccccc1)P(=O)(OCC)OCC (stereo not drawn) [Compound 1, Benzenepentanoic acid, α-(diethoxyphosphinyl)-δ-oxo-, ethyl ester] | 37

same assay, conditions: Mus musculus, po, 216 h, read-out: % Inhibition (DTH granuloma)

Row | Compound | inhibition in vivo at 10 mg/kg [%]
12 | COC(=O)C1(P(=O)(OC)OC)CN1N1C(=O)c2ccccc2C1=O (stereo not drawn) [Compound 11, 2-Aziridinecarboxylic acid, 1-(1,3-dihydro-1,3-dioxo-2H-isoindol-2-yl)-2-(dimethoxyphosphinyl)-, methyl ester] | 42
